Read-outs that look alike come from different tables or passages of the source.
Experiments:
[1] = tested on: MCF7; assay: MTT cytotoxicity assay, MCF7 cells (uninduced); assay type: cell-based, human; details: read-out: IC50 MCF7
Description: (§1) The antiproliferative activity of the resveratrol analogues was investigated using a human breast cell line panel, which has been characterised for CYP1 expression in our laboratories. IC50 values for both cis- and trans-isomers were determined using a standard 3-[4,5-dimethylthiazol-2-yl]-2,5-diphenyl tetrazolium bromide (MTT) cell viability assay and are shown in Table 1 (trans-stilbene analogues) and Table 2 (cis-stilbene analogues).
(§2) MCF7 cells are both ER positive and Ah receptor positive and have been well documented for their CYP1 expression, and it is known that treatment with TCDD elevates CYP1A1 and CYP1B1 expression. The cells were treated with DMSO (0.1%) for 24 h for constitutive expression, whereas for inducible CYP1 expression, the cells were treated with TCDD (10 nM) for 24 h.
(§3) A standard MTT (3-[4,5-dimethylthiazol-2-yl]-2,5-diphenyl tetrazolium bromide) cell viability assay was employed to evaluate the cytotoxicity of the stilbenes prepared. The MTT assay is a rapid quantitative spectrophotometric method for determining cell growth (viability) due to necrosis or apoptosis in monolayer-cultured cell lines in response to external factors. It is widely employed to evaluate the cytotoxicity of potential medicinal agents.
(§4) MCF7 cells were grown in RPMI-1640 medium with phenol red and 10% (v/v) heat-inactivated (heated to 56 °C for 45 min) foetal calf serum. MDA-468 cells were grown in RPMI-1640 medium with 10% (v/v) heat-inactivated foetal calf serum and L-glutamine (2 mM) without phenol red. MCF-10A cells were grown in Dulbecco’s modified Eagle’s medium/ Ham’s F-12 medium (1:1) with 5% (v/v) heat-inactivated foetal calf serum, epidermal growth factor (20 ng/mL), insulin ([…]) and hydrocortisone (500 ng/mL). Cells were maintained at 37 °C, 5% CO2/95% air with 100% humidity and passaged every 2–3 days using trypsin EDTA solution (0.25% w/v). Adhered cells at sub confluence were harvested for experimental use.
(§5) Aliquots of cell suspensions (100 µL at 2 × 10^3 cells per ml) were dispensed into sterile 96-well microtiter flat-bottomed plates. For the MDA468 and MCF10A cell lines, the plates were incubated at 37 °C, 5% CO2/95% air with 100% humidity for 24 h prior to the addition of test compounds. For MCF7 cells, after allowing approximately 4 h for cells to adhere, 100 µL of medium containing TCDD (from 100 mM stock in DMSO) or medium with 0.2% (v/v) DMSO was added to give a final concentration of 10 nM TCDD and 0.1% (v/v) DMSO. After 24 h, the medium was aspirated and replaced with fresh medium (100 µL) before the addition of test compounds.
(§6) Then, 100 µL aliquots of test compounds were added within 30 min into the wells from a 100 mM stock solution in DMSO and serially diluted to give final concentrations of […], 0.01, 0.003, 0.001 and 0.0003 µM. […] The cells were allowed to grow for 96 h at 5% CO2, 37 °C, to give 80–90% confluence in the control wells, after which 50 µL of 2 mg/mL MTT (final concentration 0.4 mg/mL) in sterile phosphate buffer was added to each well and the plates were further incubated for 2 h. All medium was aspirated and the formazan precipitate generated by viable cells was solubilised by 150 µL of DMSO. All the plates were vortexed and the absorbance at 540 nm was determined using a SpectraMax M5 plate reader (Molecular Devices, Wokingham, UK).
(§7) Results were expressed as a percentage of the control value versus the negative logarithm of the molar drug concentration range using GraphPad Prism (Version 5.00). Relative toxicities of each compound within each cell line were expressed as 50% of growth inhibition (IC50). All determinations were carried out in quadruplicate.

[2] = tested on: MCF7 (TCDD); assay: MTT cytotoxicity assay, TCDD-induced MCF7 cells; assay type: cell-based, human; details: for AF = activation factor = IC50 MCF7/MCF7 (TCDD): ratio of IC50 values
Description: as §1, §2, §3, §4, §5, §6, §7

[3] = tested on: MCF10A; assay: MTT cytotoxicity assay, MCF10A non-tumour control cells; assay type: cell-based; details: Homo sapiens, MCF-10A, read-out: IC50 MCF10A
Description: as §1
MCF10A cells are non-tumourigenic human mammary epithelial in origin which have been spontaneously immortalised without chemical intervention. CYP1 activity in MCF10A cells is negligible. […] Thus, MCF10A cell line is commonly used as a control in cytotoxicity assays.
as §3, §4, §5, §6, §7

[4] = tested on: MDA468; assay: MTT cytotoxicity assay, MDA468 cells; assay type: cell-based, human; details: for IC50: Homo sapiens, read-out: IC50 MDA468; for TS = tumour selectivity = IC50 MCF10A/IC50 MDA468: ratio of IC50 values
Description: as §1
MDA468 cells represent an aggressive multi-drug-resistant tumour type and are ER negative but are aryl hydrocarbon (Ah) receptor positive in the presence of TCDD [46].
as §3, §4, §5, §6, §7

[5] = Homo sapiens, MCF7, MTT assay, 96 h incubation, 37 °C, means of quadruplicate
[6] = Homo sapiens, MCF7, MTT assay, 96 h incubation, cells induced with 10 nM TCDD for 24 h, read-out: IC50 MCF7 (TCDD)
[7] = MTT assay, 96 h incubation, non-tumour control cells
[8] = Homo sapiens, MCF7, 96 h, MTT assay, 96 h incubation, 37 °C, means of quadruplicate
[9] = 96 h, MTT assay, 96 h incubation, non-tumour control cells

| SMILES | IC50 [1, 5] [µM] | IC50 [2, 6] [µM] | IC50 [3, 7] [µM] | IC50 ([4]; MTT assay, 96 h incubation) [µM] | TS = tumour selectivity = IC50 MCF10A/IC50 MDA468 [4] | IC50 [1, 8] [µM] | IC50 [3, 9] [µM] | other results |
| --- | --- | --- | --- | --- | --- | --- | --- | --- |
| Oc1ccc(/C=C/c2cc(O)cc(O)c2)cc1 [Resveratrol, (E)-4,3′,5′-trihydroxy stilbene] | 31 | 33 | 50 | 29 | 1.7 | – | – | – |
| COc1ccc(/C=C/c2cc(OC)c(O)c(OC)c2)cc1 [DMU291] | – | 20 | – | 1 | 100 | 20 | 100 | – |
| COc1ccc(/C=C\c2cc(OC)c(OC)c(OC)c2)cc1O [CA4, combretastatin A4, reference compound] | – | 0.002 | – | 0.003 | 0.7 | 0.002 | 0.002 | – |
| COc1ccc(/C=C\c2cccc(OC)c2)cc1 [DMU241C] | 29 | 26 | > 100 | > 100 | – | – | – | – |
| CCOc1ccc(/C=C\c2cc(OC)c(OC)c(OC)c2)cc1 [DMU261] | 0.04 | 0.13 | 0.06 | 0.07 | 0.9 | – | – | – |
| COc1cc(/C=C\c2ccc(Br)cc2)cc(OC)c1OC [DMU558] | 0.08 | 0.05 | 0.05 | 0.04 | 1 | – | – | – |
| COc1ccc(/C=C\c2cc(OC)cc(OC)c2)cc1 [DMU210] | 26 | 24 | > 100 | > 100 | – | – | – | – |
| COc1ccc(/C=C\c2cc(OC)c(OC)c(OC)c2)c(OC)c1 [DMU222] | – | 0.005 | – | 0.005 | 10 | 0.06 | 0.06 | IC50 ([1]; MTT assay, 96 h incubation, 37 °C, means of quadruplicate): 0.07 µM; IC50 ([2]; MTT assay, 96 h incubation, cells induced with 10 nM TCDD for 24 h, read-out: IC50 MCF7 (TCDD)): 0.007 µM |
| COc1ccc(/C=C\c2cc(OC)c(OC)c(OC)c2)cc1 [DMU213] | – | – | – | – | four | – | – | IC50 ([1]; Homo sapiens, MCF7, 96 h): 2.5 µM; IC50 ([2]; Homo sapiens, MCF7, read-out: IC50 MCF7 (TCDD)): 0.44 µM; IC50 ([3]; 96 h): 2 µM; fold less toxic to MDA-468 compared to DMU212 [4]: 500 fold; IC50 ([4]; 96 h): 0.5 µM; TS = tumour selectivity = IC50 MCF10A/IC50 MDA468 ([4]; listed as 213): 4 |
| COc1cc(/C=C/c2ccc3c(c2)OCO3)cc(OC)c1OC [DMU220] | 3.4 | 2.3 | 3.9 | 0.99 | four | – | – | TS = tumour selectivity = IC50 MCF10A/IC50 MDA468 ([4]; listed as 220): 4 |
| COc1ccc(/C=C/c2cc(OC)cc(OC)c2)cc1 [DMU271] | 14 | 14 | > 100 | > 100 | – | – | – | – |
| COc1ccc(/C=C\c2ccc(OC)c(OC)c2OC)cc1 [DMU548] | 8 | 7.1 | 100 | 30 | – | – | – | – |
| COc1cc(/C=C/c2ccc(O)cc2)cc(OC)c1OC [DMU281] | – | 28 | – | 3.6 | 6 | 30 | 23 | – |
| COc1ccc(/C=C\c2cc(OC)c(OC)c(OC)c2)cc1OC [DMU1024] | – | 9 | – | 6 | 2 | 9 | 10 | – |
| COc1ccc(/C=C/c2ccc(OC)c(OC)c2OC)cc1 [DMU547] | 80 | 1 | 20 | 4.5 | 4 | – | – | – |
| COc1cc(/C=C\c2ccc3c(c2)OCO3)cc(OC)c1OC [DMU299] | 0.05 | 0.05 | 20 | 20 | one | – | – | AF = activation factor = IC50 MCF7/MCF7 (TCDD) [2]: one; TS = tumour selectivity = IC50 MCF10A/IC50 MDA468 ([4]; listed as 299): 1 |
| CCOc1ccc(/C=C/c2cc(OC)c(OC)c(OC)c2)cc1 [DMU260] | 5 | 5 | 3.7 | 1.8 | two | – | – | AF = activation factor = IC50 MCF7/MCF7 (TCDD) [2]: one; TS = tumour selectivity = IC50 MCF10A/IC50 MDA468 ([4]; listed as 260): 2 |
| COc1ccc(/C=C/c2ccc(OC)cc2)cc1 [DMU205] | – | 28 | – | 100 | 1 | 28 | 100 | – |
| COc1ccc2cc(/C=C/c3cc(OC)c(OC)c(OC)c3)ccc2c1 [DMU567] | – | 42 | – | 0.04 | three | 100 | 0.11 | TS = tumour selectivity = IC50 MCF10A/IC50 MDA468 ([4]; listed as 567): 3 |
| COc1cc(/C=C/c2ccc(O)cc2)cc(OC)c1O [DMU295] | – | 4.2 | – | 5.1 | 10 | 50 | 51 | – |
| COc1ccc(/C=C\c2cccc(C)c2)cc1 [DMU216C] | – | 30 | – | > 100 | – | 26 | > 100 | – |
| COc1cc(/C=C/c2ccc(Br)cc2)cc(OC)c1OC [DMU557] | 7 | 8 | 20 | 7 | 3 | – | – | – |
| COc1ccc(/C=C/c2cccc(OC)c2)cc1 [DMU241] | 27 | 24 | > 100 | > 100 | – | – | – | – |
| COc1cc(/C=C/c2ccc(Cl)cc2)cc(OC)c1OC [DMU555] | 100 | 100 | 8 | 12 | 0.7 | – | – | – |
| COc1ccc(/C=C\c2ccc(OC)cc2)cc1 [DMU265] | – | 20 | – | > 100 | – | 25 | > 100 | – |
| COc1cc(/C=C\c2ccc(Cl)cc2)cc(OC)c1OC [DMU556] | 0.8 | 0.8 | 35 | 7 | 5 | – | – | – |
| COc1cc(/C=C/c2ccc(I)cc2)cc(OC)c1OC [DMU509] | – | 15 | – | 13 | 1 | 15 | 13 | – |
| COc1ccc(/C=C/c2cc(OC)c(OC)c(OC)c2)c(OC)c1 [DMU219] | – | 1.4 | – | 0.8 | 2 | 1.7 | 1.4 | – |
| COc1ccc(CCc2cc(OC)c(OC)c(OC)c2)cc1 [DMU224] | – | 0.06 | – | 0.005 | – | 0.06 | 0.06 | – |

Reference: PMC10818546, “CYP1-Activation and Anticancer Properties of Synthetic Methoxylated Resveratrol Analogues” (Molecules, 2024)
